Assay results reported in PubChem BioAssay AID2060487 (Molecular Pharmacology Branch, DTP, NCI, 2025).

Tested on: 997537-175-T-J1-PDC complex spheroid viability
Assay: Anticancer human tumor 997537-175-T-J1-PDC patient-derived colon adenocarcinoma cell line growth inhibition [GQUAD]
Conditions: for IC50: curve of first compound; for viability, T/C: stronger effect = lower value
Outline: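 Multi-cell-type spheroids of tumor cells with HUVEC and mesenchymal stem cells, treated with drug combinations. Concentrations descend in half-log steps from near clinical Cmax, or from 10 microM where Cmax is unknown; viability read-out.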

[1] = second compound 0.0316 µM, first compound 0.0316 µM
[2] = second compound 0.0316 µM, first compound 0.1 µM
[3] = second compound 0.0316 µM, first compound 0.316 µM
[4] = second compound 0.0316 µM, first compound 1 µM
[5] = second compound 0.0316 µM, first compound 3.16 µM
[6] = second compound 0.0316 µM, first compound 10 µM
[7] = second compound 0.1 µM, first compound 0.0316 µM
[8] = second compound 0.1 µM, first compound 0.1 µM
[9] = second compound 0.1 µM, first compound 0.316 µM
[10] = second compound 0.1 µM, first compound 1 µM
[11] = second compound 0.1 µM, first compound 3.16 µM
[12] = second compound 0.1 µM, first compound 10 µM
[13] = second compound 0.316 µM, first compound 0.0316 µM
[14] = second compound 0.316 µM, first compound 0.1 µM
[15] = second compound 0.316 µM, first compound 0.316 µM
[16] = second compound 0.316 µM, first compound 1 µM
[17] = second compound 0.316 µM, first compound 3.16 µM
[18] = second compound 0.316 µM, first compound 10 µM
[19] = second compound 1 µM, first compound 0.0316 µM
[20] = second compound 1 µM, first compound 0.1 µM
[21] = second compound 1 µM, first compound 0.316 µM
[22] = second compound 1 µM, first compound 1 µM
[23] = second compound 1 µM, first compound 3.16 µM
[24] = second compound 1 µM, first compound 10 µM
[25] = second compound 3.16 µM, first compound 0.0316 µM
[26] = second compound 3.16 µM, first compound 0.1 µM
[27] = second compound 3.16 µM, first compound 0.316 µM
[28] = second compound 3.16 µM, first compound 1 µM
[29] = second compound 3.16 µM, first compound 3.16 µM
[30] = second compound 3.16 µM, first compound 10 µM
[31] = second compound 10 µM, first compound 0.0316 µM
[32] = second compound 10 µM, first compound 0.1 µM
[33] = second compound 10 µM, first compound 0.316 µM
[34] = second compound 10 µM, first compound 1 µM
[35] = second compound 10 µM, first compound 3.16 µM
[36] = second compound 10 µM, first compound 10 µM
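Further: spheroids exposed to the agents for 7 days.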
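Wherever viability, T/C is given: 100% = DMSO vehicle control viability.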

`CCCS(=O)(=O)Nc1ccc(F)c(C(=O)c2c[nH]c3ncc(-c4ccc(Cl)cc4)cc23)c1F` + Cc1[nH]c2ccc(F)cc2c1-c1nc2c3cccnc3c3ncccc3c2[nH]1 gave an IC50 (second compound 0.0316 µM) of 5740 nM, an IC50 (second compound 0.1 µM) of 5600 nM and an IC50 (second compound 0.316 µM) of 8050 nM. For the same molecule, the IC50 (second compound 1 µM) was 1920 nM, the IC50 (second compound 3.16 µM) was 2030 nM and the IC50 (second compound 10 µM) was 1470 nM. For the same molecule, the viability, T/C [1] was 88.8%, the viability, T/C [2] was 107% and the viability, T/C [3] was 97.9%. The viability, T/C [4] was 70.1%, the viability, T/C [5] was 71.5% and the viability, T/C [6] was 34.4%. It also gave a viability, T/C [7] of 101%, a viability, T/C [8] of 105% and a viability, T/C [9] of 90%. The viability, T/C [10] was 94.1%, the viability, T/C [11] was 71.6% and the viability, T/C [12] was 27.5%. It also gave a viability, T/C [13] of 102%, a viability, T/C [14] of 101% and a viability, T/C [15] of 97.1%. For the same molecule, the viability, T/C [16] was 69.2%, the viability, T/C [17] was 83.5% and the viability, T/C [18] was 41.8%. It also gave a viability, T/C [19] of 98.2%, a viability, T/C [20] of 97.4% and a viability, T/C [21] of 101%. For the same molecule, the viability, T/C [22] was 73.4%, the viability, T/C [23] was 33.1% and the viability, T/C [24] was 30.7%. It also gave a viability, T/C [25] of 86%, a viability, T/C [26] of 81% and a viability, T/C [27] of 88%. The viability, T/C [28] was 72.8%, the viability, T/C [29] was 35.4% and the viability, T/C [30] was 16.5%. The viability, T/C [31] was 72.4%, the viability, T/C [32] was 82.5% and the viability, T/C [33] was 71.8%. The viability, T/C [34] was 63.3%, the viability, T/C [35] was 17.7% and the viability, T/C [36] was 28.9%.

With `CC(C)n1c(=O)n(C)c2cnc3cc(F)c(-c4ccc(OCCCN5CCCCC5)nc4)cc3c21` + Cc1[nH]c2ccc(F)cc2c1-c1nc2c3cccnc3c3ncccc3c2[nH]1 the IC50 (second compound 0.0316 µM) was greater than 10000 nM, the IC50 (second compound 0.1 µM) was greater than 10000 nM and the IC50 (second compound 0.316 µM) was greater than 10000 nM. For the same molecule, the IC50 (second compound 1 µM) was greater than 10000 nM, the IC50 (second compound 3.16 µM) was greater than 10000 nM and the IC50 (second compound 10 µM) was greater than 10000 nM. It also gave a viability, T/C [1] of 117%, a viability, T/C [2] of 104% and a viability, T/C [3] of 112%. It also gave a viability, T/C [4] of 98.2%, a viability, T/C [5] of 113% and a viability, T/C [6] of 106%. The viability, T/C [7] was 121%, the viability, T/C [8] was 97.6% and the viability, T/C [9] was 97.6%. For the same molecule, the viability, T/C [10] was 95.6%, the viability, T/C [11] was 108% and the viability, T/C [12] was 99.9%. The viability, T/C [13] was 94.2%, the viability, T/C [14] was 103% and the viability, T/C [15] was 88.8%. For the same molecule, the viability, T/C [16] was 77.9%, the viability, T/C [17] was 116% and the viability, T/C [18] was 84%. It also gave a viability, T/C [19] of 86.4%, a viability, T/C [20] of 109% and a viability, T/C [21] of 91.1%. It also gave a viability, T/C [22] of 107%, a viability, T/C [23] of 112% and a viability, T/C [24] of 98.8%. For the same molecule, the viability, T/C [25] was 89.3%, the viability, T/C [26] was 100% and the viability, T/C [27] was 100%. For the same molecule, the viability, T/C [28] was 93.2%, the viability, T/C [29] was 98.2% and the viability, T/C [30] was 90.5%. It also gave a viability, T/C [31] of 81.5%, a viability, T/C [32] of 79.9% and a viability, T/C [33] of 95.7%. The viability, T/C [34] was 79.9%, the viability, T/C [35] was 88.9% and the viability, T/C [36] was 72.5%.

For `CCc1c2c(nc3ccc(O)cc13)-c1cc3c(c(=O)n1C2)COC(=O)[C@]3(O)CC` + CN(C)c1ccc(Nc2c3ccc(NC(=O)CCN4CCCC4)cc3nc3cc(NC(=O)CCN4CCCC4)ccc23)cc1, the IC50 (second compound 0.0316 µM) was 13.8 nM, the IC50 (second compound 0.1 µM) was 10.3 nM and the IC50 (second compound 0.316 µM) was 10.2 nM. For the same molecule, the IC50 (second compound 1 µM) was 15.7 nM, the IC50 (second compound 3.16 µM) was 15.8 nM and the IC50 (second compound 10 µM) was 21.3 nM. The viability, T/C (second compound 0.0316 µM, first compound 0.000999 µM) was 97.8%, the viability, T/C (second compound 0.0316 µM, first compound 0.00316 µM) was 84.2% and the viability, T/C (second compound 0.0316 µM, first compound 0.00999 µM) was 58.6%. It also gave a viability, T/C [1] of 29.5%, a viability, T/C (second compound 0.0316 µM, first compound 0.0999 µM) of 6.84% and a viability, T/C [3] of 4.15%. For the same molecule, the viability, T/C (second compound 0.1 µM, first compound 0.000999 µM) was 104%, the viability, T/C (second compound 0.1 µM, first compound 0.00316 µM) was 83.4% and the viability, T/C (second compound 0.1 µM, first compound 0.00999 µM) was 50.6%. The viability, T/C [7] was 22.9%, the viability, T/C (second compound 0.1 µM, first compound 0.0999 µM) was 9.03% and the viability, T/C [9] was 4.26%. The viability, T/C (second compound 0.316 µM, first compound 0.000999 µM) was 97%, the viability, T/C (second compound 0.316 µM, first compound 0.00316 µM) was 78.4% and the viability, T/C (second compound 0.316 µM, first compound 0.00999 µM) was 51.6%. It also gave a viability, T/C [13] of 22.6%, a viability, T/C (second compound 0.316 µM, first compound 0.0999 µM) of 8.39% and a viability, T/C [15] of 4.2%. The viability, T/C (second compound 1 µM, first compound 0.000999 µM) was 77.5%, the viability, T/C (second compound 1 µM, first compound 0.00316 µM) was 58.7% and the viability, T/C (second compound 1 µM, first compound 0.00999 µM) was 67.6%. For the same molecule, the viability, T/C [19] was 23.9%, the viability, T/C (second compound 1 µM, first compound 0.0999 µM) was 11.6% and the viability, T/C [21] was 3.86%. For the same molecule, the viability, T/C (second compound 3.16 µM, first compound 0.000999 µM) was 75%, the viability, T/C (second compound 3.16 µM, first compound 0.00316 µM) was 85% and the viability, T/C (second compound 3.16 µM, first compound 0.00999 µM) was 57.8%. It also gave a viability, T/C [25] of 33.8%, a viability, T/C (second compound 3.16 µM, first compound 0.0999 µM) of 9.84% and a viability, T/C [27] of 4.51%. For the same molecule, the viability, T/C (second compound 10 µM, first compound 0.000999 µM) was 83.9%, the viability, T/C (second compound 10 µM, first compound 0.00316 µM) was 84% and the viability, T/C (second compound 10 µM, first compound 0.00999 µM) was 80.4%. It also gave a viability, T/C [31] of 34.2%, a viability, T/C (second compound 10 µM, first compound 0.0999 µM) of 11.7% and a viability, T/C [33] of 4.48%.
